Results taken from PubChem BioAssay (NCI).
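How tested: cells in 96-well plates exposed to compound for 48 hours at five concentrations. Abbreviation: GI50, concentration required for 50% inhibition of growth. Definition used: TGI = concentration required for complete inhibition of growth.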

How the values were obtained:
Assay in all cases: NCI tumour cell line growth inhibition, 48 h
PC-3 prostate = tested on: PC-3 prostate
SN12C renal = tested on: SN12C renal
MDA-MB-231 breast = tested on: MDA-MB-231 breast
LOX IMVI melanoma = tested on: LOX IMVI melanoma
SF-268 CNS = tested on: SF-268 CNS
T-47D breast = tested on: T-47D breast
SK-MEL-5 melanoma = tested on: SK-MEL-5 melanoma
SF-295 CNS = tested on: SF-295 CNS
SF-539 CNS = tested on: SF-539 CNS
HCC-2998 colon = tested on: HCC-2998 colon

SMILES | GI50 (PC-3 prostate) | TGI (PC-3 prostate) | GI50 (SN12C renal) | TGI (SN12C renal) | GI50 (MDA-MB-231 breast) | TGI (MDA-MB-231 breast) | GI50 (LOX IMVI melanoma) | TGI (LOX IMVI melanoma) | GI50 (SF-268 CNS) | TGI (SF-268 CNS) | GI50 (T-47D breast) | TGI (T-47D breast) | GI50 (SK-MEL-5 melanoma) | TGI (SK-MEL-5 melanoma) | GI50 (SF-295 CNS) | TGI (SF-295 CNS) | GI50 (SF-539 CNS) | TGI (SF-539 CNS) | TGI (HCC-2998 colon) | GI50 (HCC-2998 colon)
C1CC[N-]CC1.CC(=N\O)/C(C)=N/O.CC(=N\O)/C(C)=N/O.[CH2-]CCN1CCOCC1.[Co+2] | > 100 µM | > 100 µM | > 100 µM | > 100 µM | > 100 µM | > 100 µM | > 100 µM | > 100 µM | > 100 µM | > 100 µM | > 100 µM | > 100 µM | > 100 µM | > 100 µM | > 100 µM | > 100 µM | > 100 µM | > 100 µM | – | –
NCP(=O)(O)OCC(=O)O | – | – | – | > 100 µM | – | – | – | > 100 µM | – | > 100 µM | – | – | – | > 100 µM | – | > 100 µM | – | > 100 µM | – | –
COc1cc(/C=N\O)nc(-c2ccccn2)c1 | – | > 100 µM | – | – | – | > 100 µM | – | > 100 µM | – | > 100 µM | – | > 100 µM | – | – | – | > 100 µM | – | > 32.8 µM | > 100 µM | –
COc1cc(C2c3cc4c(cc3[C@@H](Nc3ccc(N)cc3)C3COC(=O)[C@H]23)OCO4)cc(OC)c1O (some centres not stated) | – | 16.5 µM | 0.492 µM | 6.15 µM | – | 34.8 µM | – | 6.48 µM | 0.89 µM | 19.3 µM | – | – | 0.701 µM | 7.09 µM | 0.502 µM | 4.76 µM | 0.729 µM | 6.51 µM | 9.07 µM | –
Cn1ccnc1C[N-]Cc1nccn1C.O=[N+]([O-])[O-].O=[N+]([O-])[O-].[Cu+2] | – | – | > 100 µM | > 100 µM | – | – | > 100 µM | > 100 µM | > 100 µM | > 100 µM | – | – | > 100 µM | > 100 µM | > 100 µM | > 100 µM | > 100 µM | > 100 µM | > 100 µM | > 100 µM
Cc1cc(O)c(C(c2ccncc2)c2c(O)cc(C)[nH]c2=O)c(=O)[nH]1 | – | > 100 µM | – | > 100 µM | – | > 100 µM | – | > 100 µM | – | > 100 µM | – | > 100 µM | – | > 100 µM | – | > 100 µM | – | – | – | –
CC(=O)CC(=O)/C=C/c1cccs1 | – | – | – | > 100 µM | – | – | – | > 100 µM | – | > 100 µM | – | – | – | > 100 µM | – | > 100 µM | – | > 100 µM | – | –
COC(=O)C1CC(C(=O)OC)c2nc3cc(C)c(C)cc3nc21 (configuration not stated) | – | – | – | > 100 µM | – | – | – | > 100 µM | – | > 100 µM | – | – | – | > 100 µM | – | > 100 µM | – | > 100 µM | > 100 µM | –
CN(C)CCNc1nc(-c2cccs2)cc(-c2cccs2)n1 | – | – | – | 27.4 µM | – | – | – | 22.7 µM | – | – | – | – | – | 29.6 µM | – | 28.2 µM | – | 28.5 µM | 25.3 µM | –
CCc1nc(-n2c(-c3ccccc3)nc3ccccc3c2=O)nc(N)c1-c1ccc(Cl)cc1 | 5.64 µM | 90.6 µM | 15.6 µM | > 100 µM | > 100 µM | > 100 µM | 3.94 µM | > 100 µM | 73.2 µM | > 100 µM | 27 µM | 81 µM | 5.6 µM | 33 µM | 2.26 µM | 20.2 µM | 23.7 µM | > 100 µM | – | –
COc1ccc2nc3cccc(C(=O)NCCN(C)C)c3nc2c1 | – | – | – | 4.93 µM | – | – | – | 2.45 µM | – | – | – | – | – | – | – | > 22.8 µM | – | 8.8 µM | 6.16 µM | –
O=C(CC(=O)c1ccccc1)c1ccccc1 | 25.9 µM | > 100 µM | 52.8 µM | > 100 µM | > 100 µM | > 100 µM | – | – | 10.9 µM | 57.7 µM | 14.9 µM | 46.1 µM | 11.5 µM | 32.4 µM | 17.3 µM | 99.7 µM | 4.5 µM | 16.2 µM | – | –
CCCCOc1ccc(/C=N/Nc2cc(C)nc3ccc(Cl)cc23)cc1 | 1.71 µM | 3.35 µM | 1.63 µM | 3.08 µM | 1.74 µM | 3.25 µM | 1.69 µM | 3.09 µM | – | – | 1.73 µM | 3.77 µM | 1.61 µM | 2.97 µM | 1.66 µM | 3.1 µM | 1.84 µM | 3.28 µM | 3.38 µM | 1.91 µM
C1C[OH+]CC[OH+]CC[OH+]CC[OH+]CC[OH+]CC[OH+]1.[Cl-].[Nb+5] | – | – | > 100 µM | > 100 µM | – | – | > 100 µM | > 100 µM | > 100 µM | > 100 µM | – | – | > 100 µM | > 100 µM | > 100 µM | > 100 µM | > 100 µM | > 100 µM | > 100 µM | > 100 µM
CO[C@H](C(=O)O)[C@@H]1Cc2cc3cc(OC4CC(OC5CC(O)C(O)C(C)O5)C(O)C(C)O4)c(C)c(O)c3c(O)c2C(=O)[C@H]1OC1CC(OC2CC(OC3CC(C)(O)C(O)C(C)O3)C(O)C(C)O2)C(O)C(C)O1 (some centres not stated) | 0.348 µM | > 32.5 µM | 0.179 µM | > 32.5 µM | 0.553 µM | > 32.5 µM | 0.114 µM | 1.48 µM | 0.283 µM | > 32.5 µM | 0.302 µM | > 32.5 µM | 0.159 µM | 0.868 µM | 0.167 µM | > 32.5 µM | 0.164 µM | 2.02 µM | – | –
Cc1ccc(NC(=O)CCC(=O)C(C#N)c2ccccc2)cc1C (configuration not stated) | – | – | – | > 100 µM | – | – | – | > 100 µM | – | > 100 µM | – | – | – | > 100 µM | – | > 100 µM | – | > 100 µM | > 100 µM | –
CC(=O)O[C@H]1C=CC23OC(=O)[C@]1(C)[C@H]2[C@H](C(=O)O)C12CC(=O)[C@@](CO)(CC[C@H]13)C2 | – | – | – | > 100 µM | – | – | – | > 100 µM | – | > 100 µM | – | – | – | > 100 µM | – | > 100 µM | – | > 100 µM | > 100 µM | –
NC(=O)N/N=C(/c1nc2ccc([N+](=O)[O-])cc2[nH]c1=O)C(O)c1ccco1 (configuration not stated) | – | – | – | 33.5 µM | – | – | – | > 100 µM | – | > 100 µM | – | – | – | > 100 µM | – | > 100 µM | – | 30.9 µM | 85.3 µM | –
